Values quoted from earlier work as cited in publication PMC9826446 (Journal of Bone and Mineral Research, 2022).

Legend:
ectopic calcification = conditions: animal models of PXE; ref [1], [7], [19]
vascular calcification = conditions: patients with PXE, phase 2 trial; ref [27]
TNAP = conditions: not TNAP‐specific; ref [15], [16]

COc1ccc(Cl)cc1S(=O)(=O)Nc1cncc(C(N)=O)c1 [SBI‐425, 5‐((5‐chloro‐2‐methoxyphenyl)sulfonamido)nicotinamide]
anticalcification effects (ectopic calcification): significant anticalcification effects

CC(O)(P(=O)(O)O)P(=O)(O)O [etidronate]
vascular calcification (vascular calcification): may reduce vascular calcification

c1ccc([C@H]2CN3CCSC3=N2)cc1 [levamisole]
inhibition on TNAP (TNAP): only weak inhibition

Cn1c(=O)c2[nH]cnc2n(C)c1=O [theophylline]
inhibition on TNAP (TNAP): only weak inhibition
